From patent publication US20230365592A1 (Agios Pharmaceuticals, Inc., priority 2022, published 2023)

molecular target: T1, human PAH with the R408W mutation (Homo sapiens, UniProt P00439, R408W); assay: Cell Based Phenylalanine Flux Assay; details: A375 cells expressing R408W PAH; 24 hrs with compound, then 20 µM sepiapterin and 800 µM 13C9,15N-Phenylalanine for 4 hours; 13C-Tyrosine by LC-MS; average where tested multiple times; read-out: AC50;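 further: after compound treatment, cells received sepiapterin plus isotope-labelled Phenylalanine for 4 hours, then labelled Tyrosine in the medium was quantified, 10-point 2-fold dilution series run in duplicate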
T1 construct: expressed in transfected cells
T1 sequence (P00439 1-452 R408W): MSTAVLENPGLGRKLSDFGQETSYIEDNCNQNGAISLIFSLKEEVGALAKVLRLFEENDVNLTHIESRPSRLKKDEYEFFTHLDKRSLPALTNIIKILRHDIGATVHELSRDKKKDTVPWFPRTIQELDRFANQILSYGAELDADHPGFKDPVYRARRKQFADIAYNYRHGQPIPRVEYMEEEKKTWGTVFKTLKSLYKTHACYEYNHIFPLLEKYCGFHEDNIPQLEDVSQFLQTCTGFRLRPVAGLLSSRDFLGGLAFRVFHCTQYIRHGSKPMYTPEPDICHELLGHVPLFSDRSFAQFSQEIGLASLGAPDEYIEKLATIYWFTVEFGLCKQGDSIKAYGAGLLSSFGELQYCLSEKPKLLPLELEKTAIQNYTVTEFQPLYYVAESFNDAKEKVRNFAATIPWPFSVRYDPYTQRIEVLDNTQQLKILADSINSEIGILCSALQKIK

SMILES	AC50 [nM]
Cc1ncccc1-c1nnc(N2CCc3[nH]cnc3[C@H]2c2cc3c(C4CC4)cccn3n2)o1 (single isomer, unassigned)	1000 to 5000
FC(F)c1cccn2nc([C@H]3c4nc[nH]c4CCN3c3nc4ccccc4o3)cc12 (single isomer, unassigned)	> 5000
Cc1ccn2nc([C@@H]3c4nc[nH]c4CCN3C(=O)c3ccnn3C(F)F)cc2c1 (single isomer, unassigned)	1000 to 5000

Next, values leading:

AC50 [nM]	SMILES
1000 to 5000	O=C(c1ncco1)N1CCc2[nH]cnc2C1c1cc2c(F)cccn2n1 (stereo not shown)
1000 to 5000	O=C(c1nnc(-c2cn[nH]c2)o1)N1CCc2[nH]cnc2C1c1cc2ccccn2n1 (stereo not shown)
1000 to 5000	O=C(c1cnc(-c2ncccn2)o1)N1CCc2[nH]cnc2C1c1cc2c(C(F)(F)F)cccn2n1 (stereo not shown)
1000 to 5000	O=C(c1nnc(-c2cnn(CC(F)F)c2)o1)N1CCc2[nH]cnc2C1c1cc2ccccn2n1 (stereo not shown)

same assay, conditions: A375 cells expressing human PAH R408W; 24 hrs compound incubation; 13C-Tyrosine by LC-MS; average where tested multiple times; read-out: AC50

SMILES	AC50 [nM]
FC(F)(F)c1cccn2nc([C@@H]3c4nc[nH]c4CCN3c3nnc(-c4ccncn4)o3)cc12 [Example 2162, (S)-2-(pyrimidin-4-yl)-5-(4-(4-(trifluoromethyl)pyrazolo[1,5-a]pyridin-2-yl)-1,4,6,7-tetrahydro-5H-imidazo[4,5-c]pyridin-5-yl)-1,3,4-oxadiazole]	500 to 1000
Fc1cccc(F)c1-c1nnc(N2CCc3[nH]cnc3[C@@H]2c2cc3c(C(F)F)cccn3n2)o1 [Example 1862, (R)-2-(4-(4-(difluoromethyl)pyrazolo[1,5-a]pyridin-2-yl)-1,4,6,7-tetrahydro-5H-imidazo[4,5-c]pyridin-5-yl)-5-(2,6-difluorophenyl)-1,3,4-oxadiazole]	> 5000
Cc1cccnc1-c1nnc(N2CCc3[nH]cnc3[C@@H]2c2cc3c(C(F)F)cccn3n2)o1 [Example 2278, (R)-2-(4-(4-(difluoromethyl)pyrazolo[1,5-a]pyridin-2-yl)-1,4,6,7-tetrahydro-5H-imidazo[4,5-c]pyridin-5-yl)-5-(3-methylpyridin-2-yl)-1,3,4-oxadiazole]	> 5000
O=C(c1nc2ccccc2o1)N1CCc2[nH]cnc2[C@@H]1c1cc2c(C(F)F)cccn2n1 [Example 2053, (R)-benzo[d]oxazol-2-yl(4-(4-(difluoromethyl)pyrazolo[1,5-a]pyridin-2-yl)-1,4,6,7-tetrahydro-5H-imidazo[4,5-c]pyridin-5-yl)methanone]	> 5000
CC(C)c1cccn2nc([C@@H]3c4nc[nH]c4CCN3c3nnc(-c4ccncn4)o3)cc12 [Example 2180, (S)-2-(4-(4-isopropylpyrazolo[1,5-a]pyridin-2-yl)-1,4,6,7-tetrahydro-5H-imidazo[4,5-c]pyridin-5-yl)-5-(pyrimidin-4-yl)-1,3,4-oxadiazole]	500 to 1000

Continued, values first:

AC50 [nM]	SMILES
< 500	Cc1c(-c2ncc(C(=O)N3CCc4[nH]cnc4[C@H]3c3cc4c(C(F)(F)F)cccn4n3)o2)cnn1C [Example 2110, (S)-(2-(1,5-dimethyl-1H-pyrazol-4-yl)oxazol-5-yl)(4-(4-(trifluoromethyl)pyrazolo[1,5-a]pyridin-2-yl)-1,4,6,7-tetrahydro-5H-imidazo[4,5-c]pyridin-5-yl)methanone]
500 to 1000	O=C(c1ocnc1C1CC1)N1CCc2[nH]cnc2[C@H]1c1cc2cccc(Cl)n2n1 [Example 2042, (S)-(4-(7-chloropyrazolo[1,5-a]pyridin-2-yl)-1,4,6,7-tetrahydro-5H-imidazo[4,5-c]pyridin-5-yl)(4-cyclopropyloxazol-5-yl)methanone]
500 to 1000	CC(C)(C)c1nnc(N2CCc3[nH]cnc3[C@H]2c2cc3c(Cl)cccn3n2)o1 [Example 1833, (S)-2-(tert-butyl)-5-(4-(4-chloropyrazolo[1,5-a]pyridin-2-yl)-6,7-dihydro-1H-imidazo[4,5-c]pyridin-5(4H)-yl)-1,3,4-oxadiazole]
< 500	Cc1c(-c2nnc(C(=O)N3CCc4[nH]cnc4[C@H]3c3cc4c(C5CC5)cccn4n3)o2)cnn1C [Example 1898, (S)-(4-(4-cyclopropylpyrazolo[1,5-a]pyridin-2-yl)-1,4,6,7-tetrahydro-5H-imidazo[4,5-c]pyridin-5-yl)(5-(1,5-dimethyl-1H-pyrazol-4-yl)-1,3,4-oxadiazol-2-yl)methanone]

same assay, conditions: A375 cells expressing human R408W PAH; 24 hrs compound incubation; 13C-Tyrosine by LC-MS; average where tested multiple times; read-out: AC50

SMILES	AC50 [nM]
Cc1cccn2nc([C@@H]3c4nc[nH]c4CCN3c3ncccn3)cc12 [Example 1618, (S)-4-(4-methylpyrazolo[1,5-a]pyridin-2-yl)-5-(pyrimidin-2-yl)-4,5,6,7-tetrahydro-1H-imidazo[4,5-c]pyridine]	< 500
O=C(c1cncs1)N1CCc2[nH]cnc2[C@@H]1c1cc2ccccn2n1 [Example 603, (R)-(4-(pyrazolo[1,5-a]pyridin-2-yl)-6,7-dihydro-1H-imidazo[4,5-c]pyridin-5(4H)-yl)(thiazol-5-yl)methanone]	1000 to 5000
COCCc1ccc2c(C(=O)N3CCc4[nH]cnc4[C@H]3c3cc4c(C(F)(F)F)cccn4n3)cnn2c1 [Example 1784, (S)-(6-(2-methoxyethyl)pyrazolo[1,5-a]pyridin-3-yl)(4-(4-(trifluoromethyl)pyrazolo[1,5-a]pyridin-2-yl)-1,4,6,7-tetrahydro-5H-imidazo[4,5-c]pyridin-5-yl)methanone]	500 to 1000
O=C(c1ocnc1C1CC1)N1CCc2[nH]cnc2[C@H]1c1cc2ccccn2n1 [Example 618, (S)-(4-cyclopropyloxazol-5-yl)(4-(pyrazolo[1,5-a]pyridin-2-yl)-6,7-dihydro-1H-imidazo[4,5-c]pyridin-5(4H)-yl)methanone]	< 500
O=C(N1CCc2[nH]cnc2[C@@H]1c1cc2ccccn2n1)C(F)(F)C1(O)CCC1 [Example 639, (R)-2,2-difluoro-2-(1-hydroxycyclobutyl)-1-(4-(pyrazolo[1,5-a]pyridin-2-yl)-6,7-dihydro-1H-imidazo[4,5-c]pyridin-5(4H)-yl)ethanone]	1000 to 5000

Results, then the compound that gave them:

AC50 [nM]	SMILES
< 500	O=C(c1nnc(-c2ncccc2F)o1)N1CCc2[nH]cnc2[C@H]1c1cc2c(Cl)cccn2n1 [Example 1295, (S)-(4-(4-chloropyrazolo[1,5-a]pyridin-2-yl)-6,7-dihydro-1H-imidazo[4,5-c]pyridin-5(4H)-yl)(5-(3-fluoropyridin-2-yl)-1,3,4-oxadiazol-2-yl)methanone]
< 500	O=C(c1nnc(C2CCC2)o1)N1CCc2[nH]cnc2[C@H]1c1cc2cccc(F)n2n1 [Example 1575, (S)-(5-cyclobutyl-1,3,4-oxadiazol-2-yl)(4-(7-fluoropyrazolo[1,5-a]pyridin-2-yl)-6,7-dihydro-1H-imidazo[4,5-c]pyridin-5(4H)-yl)methanone]
1000 to 5000	CC(C)(F)c1nnc(C(=O)N2CCc3[nH]cnc3[C@@H]2c2cc3cccc(C(F)(F)F)n3n2)o1 [Example 1160, (R)-(5-(2-fluoropropan-2-yl)-1,3,4-oxadiazol-2-yl)(4-(7-(trifluoromethyl)pyrazolo[1,5-a]pyridin-2-yl)-6,7-dihydro-1H-imidazo[4,5-c]pyridin-5(4H)-yl)methanone]
< 500	O=C(c1nnc(-c2ccc(F)c(F)c2)o1)N1CCc2[nH]cnc2[C@H]1c1cc2ccccn2n1 [Example 648, (S)-(5-(3,4-difluorophenyl)-1,3,4-oxadiazol-2-yl)(4-(pyrazolo[1,5-a]pyridin-2-yl)-6,7-dihydro-1H-imidazo[4,5-c]pyridin-5(4H)-yl)methanone]
< 500	Cc1cccn2nc([C@@H]3c4nc[nH]c4CCN3C(=O)c3nnc(-c4ccccn4)o3)cc12 [Example 741, (S)-(4-(4-methylpyrazolo[1,5-a]pyridin-2-yl)-6,7-dihydro-1H-imidazo[4,5-c]pyridin-5(4H)-yl)(5-(pyridin-2-yl)-1,3,4-oxadiazol-2-yl)methanone]
< 500	O=C(c1ocnc1C(F)(F)F)N1CCc2[nH]cnc2[C@H]1c1cc2ccccn2n1 [Example 610, (S)-(4-(pyrazolo[1,5-a]pyridin-2-yl)-6,7-dihydro-1H-imidazo[4,5-c]pyridin-5(4H)-yl)(4-(trifluoromethyl)oxazol-5-yl)methanone]
< 500	Cc1ncccc1-c1nnc(C(=O)N2CCc3[nH]cnc3[C@H]2c2cc3cccc(F)n3n2)o1 [Example 1494, (S)-(4-(7-fluoropyrazolo[1,5-a]pyridin-2-yl)-6,7-dihydro-1H-imidazo[4,5-c]pyridin-5(4H)-yl)(5-(2-methylpyridin-3-yl)-1,3,4-oxadiazol-2-yl)methanone]
< 500	O=C(c1oc(C2(O)CC2)nc1C(F)F)N1CCc2[nH]cnc2[C@H]1c1cc2cccc(Cl)n2n1 [Example 1236, (S)-(4-(7-chloropyrazolo[1,5-a]pyridin-2-yl)-6,7-dihydro-1H-imidazo[4,5-c]pyridin-5(4H)-yl)(4-(difluoromethyl)-2-(1-hydroxycyclopropyl)oxazol-5-yl)methanone]
1000 to 5000	Cc1nn(C)cc1-c1nnc(C(=O)N2CCc3[nH]cnc3[C@@H]2c2cc3cccc(F)n3n2)o1 [Example 1567, (R)-(5-(1,3-dimethyl-1H-pyrazol-4-yl)-1,3,4-oxadiazol-2-yl)(4-(7-fluoropyrazolo[1,5-a]pyridin-2-yl)-6,7-dihydro-1H-imidazo[4,5-c]pyridin-5(4H)-yl)methanone]
500 to 1000	O=C(c1nnc(-c2ncccn2)o1)N1CCc2[nH]cnc2[C@H]1c1cc2cccc(C(F)F)n2n1 [Example 1499, (S)-(4-(7-(difluoromethyl)pyrazolo[1,5-a]pyridin-2-yl)-6,7-dihydro-1H-imidazo[4,5-c]pyridin-5(4H)-yl)(5-(pyrimidin-2-yl)-1,3,4-oxadiazol-2-yl)methanone]
